Reference: US12448369B2 (Edgewise Therapeutics, Inc., priority 2023, dated 2025)
Marks after values point to notes of the source that are not given here.

Legend:
[1] = target: T1, Porcine ventricle myofibrils (ventricular myosin ATPase) (Sus scrofa, UniProt P79293); assay: Myofibril ATPase assay, porcine ventricle myofibrils; assay type: biochemical, porcine (Yucatan minipigs)
T1 construct: Myofibrils from porcine cardiac muscle was isolated from the left ventricle of Yucatan minipigs; tissue Exemplar Genetics; host or cells: left ventricle of Yucatan minipigs, myofibrils prepared in house
T1 sequence (P79293 whole entry): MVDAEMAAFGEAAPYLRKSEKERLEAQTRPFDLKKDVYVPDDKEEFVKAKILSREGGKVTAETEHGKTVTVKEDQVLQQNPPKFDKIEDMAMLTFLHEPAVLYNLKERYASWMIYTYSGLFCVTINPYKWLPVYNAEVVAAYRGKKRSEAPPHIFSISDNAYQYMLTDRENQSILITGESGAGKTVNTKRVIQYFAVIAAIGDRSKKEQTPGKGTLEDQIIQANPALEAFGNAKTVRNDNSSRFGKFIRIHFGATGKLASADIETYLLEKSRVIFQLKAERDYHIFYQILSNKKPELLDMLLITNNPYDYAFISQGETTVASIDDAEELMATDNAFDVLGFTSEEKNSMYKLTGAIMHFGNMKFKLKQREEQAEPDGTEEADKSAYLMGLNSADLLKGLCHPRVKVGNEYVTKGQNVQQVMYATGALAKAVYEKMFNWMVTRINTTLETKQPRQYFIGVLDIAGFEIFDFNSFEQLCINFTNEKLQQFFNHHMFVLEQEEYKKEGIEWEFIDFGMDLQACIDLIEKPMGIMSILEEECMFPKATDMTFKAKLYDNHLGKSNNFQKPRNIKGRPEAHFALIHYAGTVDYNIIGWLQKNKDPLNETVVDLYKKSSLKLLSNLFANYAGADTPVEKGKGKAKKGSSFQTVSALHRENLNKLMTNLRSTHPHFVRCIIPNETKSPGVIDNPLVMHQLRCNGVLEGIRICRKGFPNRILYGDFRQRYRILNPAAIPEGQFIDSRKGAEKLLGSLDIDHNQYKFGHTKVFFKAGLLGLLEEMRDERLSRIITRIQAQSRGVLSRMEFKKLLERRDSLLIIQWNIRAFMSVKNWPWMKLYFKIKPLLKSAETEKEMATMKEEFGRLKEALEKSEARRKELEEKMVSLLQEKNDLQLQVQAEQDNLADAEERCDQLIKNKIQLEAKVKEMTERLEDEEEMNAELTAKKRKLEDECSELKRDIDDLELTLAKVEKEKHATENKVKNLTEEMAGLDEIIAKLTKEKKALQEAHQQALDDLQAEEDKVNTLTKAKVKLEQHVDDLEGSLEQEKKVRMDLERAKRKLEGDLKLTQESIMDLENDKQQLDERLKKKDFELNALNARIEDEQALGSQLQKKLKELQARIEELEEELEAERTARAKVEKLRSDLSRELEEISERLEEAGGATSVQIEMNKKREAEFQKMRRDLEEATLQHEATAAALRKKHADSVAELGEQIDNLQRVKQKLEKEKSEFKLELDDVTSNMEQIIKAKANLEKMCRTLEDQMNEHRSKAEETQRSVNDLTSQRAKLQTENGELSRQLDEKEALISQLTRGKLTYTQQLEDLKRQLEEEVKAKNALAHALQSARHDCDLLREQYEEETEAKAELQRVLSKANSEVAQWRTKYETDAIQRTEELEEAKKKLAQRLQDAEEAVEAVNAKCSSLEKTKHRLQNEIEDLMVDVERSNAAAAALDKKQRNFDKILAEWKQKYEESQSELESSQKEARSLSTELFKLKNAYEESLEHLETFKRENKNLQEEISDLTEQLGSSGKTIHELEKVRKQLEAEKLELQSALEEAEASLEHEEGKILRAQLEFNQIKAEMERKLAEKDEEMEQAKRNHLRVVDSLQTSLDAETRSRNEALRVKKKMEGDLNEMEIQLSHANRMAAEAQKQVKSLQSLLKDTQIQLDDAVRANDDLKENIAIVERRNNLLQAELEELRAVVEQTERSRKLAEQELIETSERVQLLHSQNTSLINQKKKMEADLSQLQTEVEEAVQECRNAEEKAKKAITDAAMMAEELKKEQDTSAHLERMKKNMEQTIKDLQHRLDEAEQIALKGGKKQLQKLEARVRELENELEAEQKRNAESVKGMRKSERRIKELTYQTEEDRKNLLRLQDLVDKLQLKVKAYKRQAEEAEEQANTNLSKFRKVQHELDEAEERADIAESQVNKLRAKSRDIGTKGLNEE
Method in brief: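 ATPase activity of porcine left-ventricle myofibrils (Yucatan minipig) was followed through PK-LDH coupling as NADH loss at 340 nm, read every 1.5-2 min for 75 min. Slopes were normalised to vehicle wells and fitted to a 4-parameter logistic model. Values are Y75, the concentration giving a 25% drop in activity, or Y125 for activators.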

[2] = tested on: Rabbit Psoas myofibrils (skeletal myosin ATPase); assay: Myofibril ATPase assay, rabbit psoas (skeletal) myofibrils; assay type: biochemical
Method in brief: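 Values are concentrations giving 75% (Y75) or 125% (Y125) of vehicle ATPase activity, from 4-parameter logistic fits of normalized rates. Rates came from linear regression of A340 over 75 min, NADH oxidation coupled to ADP via PK-LDH. Enzyme source: skeletal myofibrils from rabbit psoas, pH 7.0 pCa buffer.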

[3] = tested on: Porcine atria myofibrils (atrial myosin ATPase); assay: Myofibril ATPase assay, porcine atria myofibrils; assay type: biochemical
Method in brief: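 Y75 (25% inhibition) or Y125 (activation) values come from 4-parameter logistic fits of vehicle-normalized rates. Rates are linear-regression slopes of NADH absorbance at 340 nm, read kinetically over 75 min, with ADP coupled to NADH oxidation via pyruvate kinase/lactate dehydrogenase.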

[4] = Y75 value: concentration required to reduce myosin ATP-ase activity by 25%, Porcine Ventricle Prep pCa 25 GEOM_MEAN
[5] = Y75 value: concentration required to reduce myosin ATP-ase activity by 25%, Rabbit Psoas Prep pCa 25 GEOM_MEAN
[6] = Y75 value: concentration required to reduce myosin ATP-ase activity by 25%, Porcine Atria Prep pCa 25 GEOM_MEAN
[7] = Y75 value (no ‡ mark), porcine ventricle myofibrils
[8] = Y75 value (no ‡ mark), rabbit psoas myofibrils
[9] = Y75 value (no ‡ mark), porcine atria myofibrils

Ventricular EC25 [1, 4]	Skeletal EC25 [2, 5]	Atrial EC25 [3, 6]	Skeletal EC25 (μM), Y125 value (‡) ([2]; Y125 value: concentration required to increase myosin ATP-ase activity by 25%, Rabbit Psoas Prep pCa 25 GEOM_MEAN)	Ventricular EC25 [1, 7]	Skeletal EC25 [2, 8]	Atrial EC25 [3, 9]	SMILES
–	–	–	–	100000 nM	42660 nM	8470 nM	N#Cc1cnc2c(c1)CC[C@H]2NC(=O)C1(c2cc3c(F)c(F)ccc3[nH]c2=O)CC1 (single isomer, unassigned) [compound 4823]
–	–	–	–	100000 nM	8800 nM	100000 nM	N#Cc1cnc2c(c1)CC[C@@H]2NC(=O)C1(c2cc3c(F)c(F)ccc3[nH]c2=O)CC1 (single isomer, unassigned) [compound 4824]
–	–	–	–	100000 nM	100000 nM	430 nM	Cc1nc(C#N)cnc1[C@@H](C)NC(=O)C1(c2cc3c(F)c(F)ccc3[nH]c2=O)CC1 (single isomer, unassigned) [compound 4825]
–	–	–	–	10090 nM	1000 nM	670 nM	Cc1nc(C#N)cnc1[C@H](C)NC(=O)C1(c2cc3c(F)c(F)ccc3[nH]c2=O)CC1 (single isomer, unassigned) [compound 4826]
–	–	–	–	710 nM	80 nM	230 nM	Cc1c(C(F)(F)C(=O)N[C@H](C)c2cnc(C#N)cn2)c(=O)[nH]c2ccc(F)cc12 (single isomer, unassigned) [compound 4827]
–	–	–	–	1130 nM	240 nM	300 nM	Cc1c(C(F)(F)C(=O)N[C@@H](C)c2cnc(C#N)cn2)c(=O)[nH]c2ccc(F)cc12 (single isomer, unassigned) [compound 4828]
–	–	–	–	6130 nM	1150 nM	450 nM	C[C@@H](NC(=O)C1(c2cc3c(F)c(F)ccc3[nH]c2=O)CC1)c1cnc(C#N)cn1 (single isomer, unassigned) [compound 4829]
–	–	–	–	100000 nM	1340 nM	460 nM	C[C@H](NC(=O)C1(c2cc3c(F)c(F)ccc3[nH]c2=O)CC1)c1cnc(C#N)cn1 (single isomer, unassigned) [compound 4830]
–	–	–	–	390 nM	60 nM	120 nM	Cc1c(F)ccc2[nH]c(=O)c(C(F)(F)C(=O)N[C@H](C)c3ncc(C#N)cn3)c(C)c12 (single isomer, unassigned) [compound 4831]
–	–	–	–	580 nM	170 nM	120 nM	Cc1c(F)ccc2[nH]c(=O)c(C(F)(F)C(=O)N[C@@H](C)c3ncc(C#N)cn3)c(C)c12 (single isomer, unassigned) [compound 4832]
–	–	–	–	1040 nM	250 nM	520 nM	CC[C@@H](NC(=O)Cc1c(C)c2c(C)c(F)ccc2[nH]c1=O)c1ncc(C#N)cn1 (single isomer, unassigned) [compound 4833]
–	–	–	–	640 nM	150 nM	490 nM	CC[C@H](NC(=O)Cc1c(C)c2c(C)c(F)ccc2[nH]c1=O)c1ncc(C#N)cn1 (single isomer, unassigned) [compound 4834]
–	–	–	–	770 nM	110 nM	180 nM	Cc1c(C(F)(F)C(=O)N[C@H](C)c2ncc(C#N)cc2F)c(=O)[nH]c2ccc(F)c(C#N)c12 (single isomer, unassigned) [compound 4835]

The next lines start with the compound.

SMILES	Ventricular EC25 [1, 4]	Skeletal EC25 [2, 5]	Atrial EC25 [3, 6]	Skeletal EC25 (μM), Y125 value (‡) ([2]; Y125 value: concentration required to increase myosin ATP-ase activity by 25%, Rabbit Psoas Prep pCa 25 GEOM_MEAN)	Ventricular EC25 [1, 7]	Skeletal EC25 [2, 8]	Atrial EC25 [3, 9]
C[C@@H](NC(=O)Cc1cc2c(F)c(F)ccc2[nH]c1=O)c1nc(C#N)co1 (single isomer, unassigned) [compound 4006]	6660 nM	1110 nM	740 nM	–	–	–	–
C[C@H](NC(=O)Cc1cc2c(F)c(F)ccc2[nH]c1=O)c1nc(C#N)co1 (single isomer, unassigned) [compound 4007]	100000 nM	–	100000 nM	100.00‡ μM	–	–	–
C[C@H](NC(=O)Cc1cc2c(F)c(F)ccc2[nH]c1=O)c1nc(C#N)cs1 (single isomer, unassigned) [compound 4008]	2080 nM	4420 nM	2240 nM	–	–	–	–
CC(NC(=O)Cc1cc2c(F)c(F)ccc2[nH]c1=O)c1nc(C#N)cs1 (single isomer, unassigned) [compound 4009, N-(1-(4-cyanothiazol-2-yl)ethyl)-2-(5,6-difluoro-2-oxo-1,2-dihydroquinolin-3-yl)acetamide]	910 nM	1490 nM	2280 nM	–	–	–	–
O=C(Cc1cc2cc(F)ccc2[nH]c1=O)N1CC[C@H]2C[C@@H]1c1ccccc12 (single isomer, unassigned) [compound 4502]	–	–	–	–	630 nM	500 nM	1280 nM
O=C(Cc1cc2cc(F)ccc2[nH]c1=O)N1CC[C@@H]2C[C@H]1c1ccccc12 (single isomer, unassigned) [compound 4503]	–	–	–	–	2980 nM	1290 nM	11520 nM
Cc1c(C2(C(=O)N[C@H](C)c3ncc(C#N)cc3F)CC2)c(=O)[nH]c2ccc(F)c(C(F)(F)F)c12 (single isomer, unassigned) [compound 4801]	–	–	–	–	100000 nM	280 nM	280 nM
Cc1c(C2(C(=O)N[C@@H](C)c3ncc(C#N)cc3F)CC2)c(=O)[nH]c2ccc(F)c(C(F)(F)F)c12 (single isomer, unassigned) [compound 4802]	–	–	–	–	1000 nM	140 nM	200 nM
Cc1c(C2(C(=O)N[C@@H]3CCc4cc(C#N)cnc43)CC2)c(=O)[nH]c2ccc(F)c(F)c12 (single isomer, unassigned) [compound 4803]	–	–	–	–	100000 nM	270 nM	100000 nM
Cc1c(C2(C(=O)N[C@H]3CCc4cc(C#N)cnc43)CC2)c(=O)[nH]c2ccc(F)c(F)c12 (single isomer, unassigned) [compound 4804]	–	–	–	–	100000 nM	100000 nM	4710 nM
Cc1cc(F)cnc1[C@@H](C)NC(=O)C1(c2cc3c(F)c(F)ccc3[nH]c2=O)CC1 (single isomer, unassigned) [compound 4805]	–	–	–	–	100000 nM	1910 nM	1660 nM
Cc1cc(F)cnc1[C@H](C)NC(=O)C1(c2cc3c(F)c(F)ccc3[nH]c2=O)CC1 (single isomer, unassigned) [compound 4806]	–	–	–	–	33850 nM	2390 nM	710 nM
C[C@@H](NC(=O)C1(c2cc3c(F)c(F)ccc3[nH]c2=O)CC1)c1ccc(C#N)cn1 (single isomer, unassigned) [compound 4809]	–	–	–	–	31200 nM	1340 nM	3070 nM
C[C@H](NC(=O)C1(c2cc3c(F)c(F)ccc3[nH]c2=O)CC1)c1ccc(C#N)cn1 (single isomer, unassigned) [compound 4810]	–	–	–	–	100000 nM	100000 nM	1900 nM
Cc1c(F)ccc2[nH]c(=O)c(C(F)(F)C(=O)N[C@H](C)c3ncc(C#N)cc3F)c(C)c12 (single isomer, unassigned) [compound 4811]	–	–	–	–	460 nM	590 nM	730 nM
Cc1c(F)ccc2[nH]c(=O)c(C(F)(F)C(=O)N[C@@H](C)c3ncc(C#N)cc3F)c(C)c12 (single isomer, unassigned) [compound 4812]	–	–	–	–	180 nM	50 nM	190 nM
Cc1c(C(F)(F)C(=O)N[C@H](C)c2ncc(F)cc2F)c(=O)[nH]c2ccc(F)cc12 (single isomer, unassigned) [compound 4819]	–	–	–	–	2650 nM	1020 nM	280 nM
Cc1c(C(F)(F)C(=O)N[C@@H](C)c2ncc(F)cc2F)c(=O)[nH]c2ccc(F)cc12 (single isomer, unassigned) [compound 4820]	–	–	–	–	610 nM	110 nM	120 nM
N#Cc1cc(F)c2c(c1)OC[C@H]2NC(=O)C1(c2cc3c(F)c(F)ccc3[nH]c2=O)CC1 (single isomer, unassigned) [compound 4821]	–	–	–	–	100000 nM	20880 nM	440 nM
N#Cc1cc(F)c2c(c1)OC[C@@H]2NC(=O)C1(c2cc3c(F)c(F)ccc3[nH]c2=O)CC1 (single isomer, unassigned) [compound 4822]	–	–	–	–	480 nM	80 nM	160 nM
